≈ marks a conversion by molar mass, not a printed value.
What was measured:
[1] = test system: P. aeruginosa PA14 and five clinical strains; assay: CFU determinations of whole well content (planktonic and biofilm bacteria); assay type: cell-based, Pseudomonas aeruginosa
[2] = test system: P. aeruginosa biofilms (PA14 and five clinical CF isolates); assay: Biofilm susceptibility test: 96-well biofilm, BacLight (Syto9/PI) staining, automated CLSM, PHLIP biovolume analysis; assay type: cell-based, Pseudomonas aeruginosa
Method: The evening before the inoculation of the 96-well microtitre plates, inoculate bacteria from a single colony into 2 ml of LB medium in a tube and incubate the preculture in an orbital shaker (180 r.p.m.) at 37° C. overnight (˜16 h). The next morning, prepare a subculture from the overnight culture by diluting it with fresh LB medium to an OD600 of 0.02. The total volume of the inoculated medium depends on the number of replicates and the number of antibiotics or antibiotic dilutions to be tested for this isolate. II. Biofilm Growth Take off the lid of the designated number of sterile half-area μClear microtitre plates and use 100 μl per well of the diluted overnight culture(s) (Step 2) to inoculate the wells (testing different antibiotics, antibiotic dilutions and a minimum of two replicates for each combination). Thereafter, seal the plate(s) with an air-permeable cover foil (no lid) and incubate for 24 h at 37° C. in an incubator with humid atmosphere. III. Antibiotic-Treatment of the Biofilms After 24 h of growth, the biofilms within the wells of the microtitre plate were exposed to antibiotics. Stock solutions of the chosen antibiotics in LB medium were prepared and two-fold serial dilutions in fresh LB-medium were performed. […] To add the antibiotic dilutions to the microtitre plates, the plates were taken out of the incubator into a safety cabinet. The cover foil was removed and 40 μl antibiotic solution to the appropriate well (different antibiotics/concentrations) were added except to the control well(s) where only LB is added. IV. Staining of the Biofilms Prepare staining solution as described above (see REAGENT SETUP). […] Cover the microtitre plate with a fresh air-permeable foil and return the plate to the incubator. Continue incubation for 24 h at 37° C. before imaging. Immediately before microscopy (after ˜48 h total incubation time), remove the microtitre plate with treated biofilms from the incubator. V. Microscopy Automated Run or Manual Run When using the automated confocal Opera system, two positions at the center of each well are chosen automatically to acquire z-stacks of the biofilms. […] Focal planes are acquired starting from the bottom of the plate (position 0) with an interplane distance (z-step size) of 3 μm (using a 40×/0.85 numerical-aperture (NA) air objective). Syto9 is excited with a 488-nm laser and detected with a 540/75 nm band-pass emission filter, whereas PI is excited at 561 nm and detected with a 600/40 nm band-pass emission filter. If a non-automated confocal microscope is used, choose adequate filter settings for Syto9 and PI. To enhance comparability, biofilm images should be recorded at the center of a well. In a manual process, due to time reasons image acquisition might be reduced to one stack per well if 2-3 replicates of the same sample are present within the plate. VI. Data Analysis Computer Calculation Save the image stacks as single .bmp image files (image files may require conversion, for example, with MATLAB software). Batch-process all images using a background subtraction tool (for example, the ‘Subtract Background’ command in ImageJ). Following background subtraction, use an Otsu-thresholding algorithm to obtain thresholded binary images (8-bit format). Reduce the appearance of planktonic bacteria and outlying pixels with a noise filter (such as the ‘Remove Outliers’ command in ImageJ). Steps 11-13 are exemplified in Supplementary FIG. 1. Reassemble the image stacks from the individual processed binary images for each position and channel with Auto PHLIP-ML software. Use the MATLAB-based tool PHLIP (without connected volume filtration) to calculate descriptive parameters of biofilms (including biovolume, substratum coverage, area-to-volume ratio, spatial spreading and 3D colocalization) from the integrated total of each individual slice of a thresholded z-stack.

[3] = test system: P. aeruginosa PA14 and five clinical CF isolates (planktonic); assay: Planktonic MIC determination with the semi-automated Vitek2 system; conditions: for MIC: Pseudomonas aeruginosa, Vitek2
Method: Clinical isolates were recovered from the respiratory tracts of chronically infected people with CF at the Hannover Medical School and differed according to morphology and resistance profile. The MICs were determined by the use of the semi-automated Vitek2 system (Biomerieux).

[4] = test system: mixed bacterial communities from sputum specimens of two cystic fibrosis patients; assay: Multi species biofilm susceptibility test of sputum specimens; assay type: cell-based; conditions: one sputum sample; 1 mg ml−1

| Molecule | MIC ([3]; isolate 5497, planktonic) [µg/mL] | MIC ([3]; isolate 5520, planktonic) [µg/mL] | MIC ([3]; isolate 5522, planktonic) [µg/mL] | MIC ([3]; isolate 5524, planktonic) [µg/mL] | MIC ([3]; isolate 5529, planktonic) [µg/mL] | MIC ([3]; isolate PA14, planktonic) [µg/mL] | MIC interpretation category ([3]; isolate 5497, Vitek2) | MIC interpretation category ([3]; isolate 5520, Vitek2) | MIC interpretation category ([3]; isolate 5522, Vitek2) | MIC interpretation category ([3]; isolate 5524, Vitek2) | MIC interpretation category ([3]; isolate 5529, Vitek2) | MIC interpretation category ([3]; isolate PA14, Vitek2) | biofilm response ([2]; isolate 5497) | further results |
| --- | --- | --- | --- | --- | --- | --- | --- | --- | --- | --- | --- | --- | --- | --- |
| NC[C@H]1O[C@H](O[C@H]2[C@H](O)[C@@H](O[C@H]3O[C@H](CO)[C@@H](O)[C@H](N)[C@H]3O)[C@H](N)C[C@@H]2N)[C@H](N)C[C@@H]1O [tobramycin] | ≤ 0.25 | 1 (≈ 2.14 µM) | > 32 | 1 (≈ 2.14 µM) | > 32 | 1 (≈ 2.14 µM) | S | S | R | S | R | S | ✓ (Biofilms were categorized as responsive (✓) if a consistent increase in the fraction of red and yellow (colocalized) fluorescenct biovolume (reaching ~ 80% of the total biovolume) within a given antibiotic concentration range was detected.) | change in CFUs ([1]; strains 5522, 5524 and 5529, low antibiotic concentrations): minor decrease; CFU counts ([1]; strains PA14, 5497 and 5520, increasing concentrations): ≤ 10^5 cells per ml; biofilm response ([2]; isolate 5520): ✓ (Biofilms were categorized as responsive (✓) if a consistent increase in the fraction of red and yellow (colocalized) fluorescenct biovolume (reaching ~ 80% of the total biovolume) within a given antibiotic concentration range was detected.); biofilm response ([2]; isolate PA14): ✓ (Biofilms were categorized as responsive (✓) if a consistent increase in the fraction of red and yellow (colocalized) fluorescenct biovolume (reaching ~ 80% of the total biovolume) within a given antibiotic concentration range was detected.); fraction of the RY biovolume of the total biovolume ([2]; strain 5529 at 512 μg ml−1): ~80%; fraction of the RY (red+yellow) biovolume of the total biovolume ([2]; strains PA14, 5497 and 5520, increasing concentrations, 2-512 μg ml−1): ~80% |
| colistin | – | – | – | – | – | – | – | – | – | – | – | – | – | biofilm responsiveness [4]: responsive |
| CC(C)O [isopropanol] | – | – | – | – | – | – | – | – | – | – | – | – | – | killing verified by CFU counts ([1]; biofilms of three clinical isolates): efficiently killed; fraction of green fluorescence in killed biofilm ([2]; biofilms of three clinical isolates, killing control): 10-20% |

Further lines, with some results ahead:

| MIC ([3]; isolate 5497, planktonic) [µg/mL] | MIC ([3]; isolate 5520, planktonic) [µg/mL] | MIC ([3]; isolate 5522, planktonic) [µg/mL] | MIC ([3]; isolate 5524, planktonic) [µg/mL] | MIC ([3]; isolate 5529, planktonic) [µg/mL] | MIC ([3]; isolate PA14, planktonic) [µg/mL] | MIC interpretation category ([3]; isolate 5497, Vitek2) | MIC interpretation category ([3]; isolate 5520, Vitek2) | MIC interpretation category ([3]; isolate 5522, Vitek2) | MIC interpretation category ([3]; isolate 5524, Vitek2) | MIC interpretation category ([3]; isolate 5529, Vitek2) | MIC interpretation category ([3]; isolate PA14, Vitek2) | Molecule | biofilm response ([2]; isolate 5497) | further results |
| --- | --- | --- | --- | --- | --- | --- | --- | --- | --- | --- | --- | --- | --- | --- |
| ≤ 0.25 | 0.5 (≈ 1.3 µM) | 2 (≈ 5.22 µM) | ≤ 0.25 | 1 (≈ 2.61 µM) | ≤ 0.25 | S | S | S | S | S | S | C[C@@H](O)[C@H]1C(=O)N2C(C(=O)O)=C(S[C@@H]3CN[C@H](C(=O)N(C)C)C3)[C@H](C)[C@H]12 [meropenem] | – | CFU counts ([1]; strain 5529 at 128 μg ml−1): ~10^6 cells per ml; susceptibility under biofilm growth conditions ([2]; all strains): resistance |
| 1 (≈ 1.83 µM) | 4 (≈ 7.32 µM) | 4 (≈ 7.32 µM) | 2 (≈ 3.66 µM) | ≤ 1 | ≤ 1 | S | S | S | S | S | S | CC(C)(O/N=C(\C(=O)N[C@@H]1C(=O)N2C(C(=O)[O-])=C(C[n+]3ccccc3)CS[C@H]12)c1csc(N)n1)C(=O)O [ceftazidime] | ✓ (Biofilms were categorized as responsive (✓) if a consistent increase in the fraction of red and yellow (colocalized) fluorescenct biovolume (reaching ~ 80% of the total biovolume) within a given antibiotic concentration range was detected.) | CFU count ([1]; strain 5497): 10^6 cells per ml; CFU count ([1]; strain PA14, without correlated imaging data): 10^6 cells per ml; RY biovolume of the total biovolume ([2]; strain 5497): ~80% |

Source: patent US10179928B2, “Methods and tests for screening bacterial biofilms” (Helmholtz-Zentrum fuer Infektionsforschung GmbH, priority 2009, dated 2019)
